Earlier results, collected in patent US9370574B2, “Composite absorbable/biodegradable rings for controlled drug delivery” (Poly-Med, Inc., priority 2003, dated 2016).

How the values were obtained:
[1] = test system: cervical intraepithelial neoplasia (CIN); conditions: collagen sponge in cervical cap
[2] = test system: post-irradiation vaginal carcinoma in-situ; conditions: 20% 5-FU over monthly 5-day courses
[3] = test system: Human Papillomavirus (HPV)-associated lesions of the vulva and vagina; conditions: biweekly doses of 5% cream for six months following ablative treatment
[4] = test system: bacterial vaginosis
[5] = test system: bacterial vaginosis; conditions: 5 gm gel (0.75%) twice-daily for 5 days

Structure (SMILES): CC1=C(/C=C/C(C)=C/C=C/C(C)=C/C(=O)O)C(C)(C)CCC1 [RA, all-trans-retinoic acid]
- complete histologic regression of CIN II ([1]; locally applied daily for 4 days): 43%
- treatment effect in severe dysplasia (CIN III) ([1]; locally applied): No treatment effect

Structure (SMILES): O=c1[nH]cc(F)c(=O)[nH]1 [Type 5-FU, 5-flurouracil]
- initial complete response [2]: seven of the eight
- recurrences [3]: 13%

Structure (SMILES): Cc1ncc([N+](=O)[O-])n1CCO [metronidazole]
- failure rate after one month, high dose ([4]; high dose sponge (one gram once-daily for three days)): 12%
- cure rate ([4]; intravaginal sponges, 250 mg twice-daily two days or one gram once-daily three days, after one week): 85%
- failure rate after one month, low dose ([4]; low dose sponge (250 mg twice-daily for two days)): 42%
- clinical cure rate ([5]; after 9 to 21 days): 87%
- recurrence rate ([5]; after one month): 15%
